Assay results published in ChEMBL document CHEMBL1136351, “Synthesis and DNA-binding affinity of A-C8/C-C2 alkoxyamido-linked pyrrolo[2,1-c][1,4]benzodiazepine dimers” (Bioorg Med Chem Lett, 2003).

Experiments:
Format in all cases: functional
Settings in all cases: Bos taurus
Nucleic Acid [1] = test: Thermal denaturation in calf thymus DNA after incubation at 37 degrees C for 0h at PBD/DNA 1:5 molar ratio
Nucleic Acid [2] = test: Thermal denaturation in calf thymus DNA after incubation at 37 degrees C for 18 hr at PBD/DNA 1:5 molar ratio
Nucleic Acid [3] = test: Thermal denaturation in calf thymus DNA after incubation at 37 degrees C Centigrade for 18 hr at PBD/DNA 1:5 molar ratio
Nucleic Acid [4] = test: Thermal denaturation in calf thymus DNA after incubation at 37 degree C for 18 hr at PBD/DNA 1:5 molar ratio

COc1cc2c(cc1OCCCCC(=O)N[C@H]1C[C@H]3C=Nc4cc(OCc5ccccc5)c(OC)cc4C(=O)N3C1)N=C[C@@H]1CCCN1C2=O
ΔTm (Nucleic Acid [1]): 6.1 °C
ΔTm (Nucleic Acid [2]): 10.9 °C

COc1cc2c(cc1OCCCC(=O)N[C@H]1C[C@H]3C=Nc4cc(OCc5ccccc5)c(OC)cc4C(=O)N3C1)N=C[C@@H]1CCCN1C2=O
ΔTm (Nucleic Acid [1]): 3.7 °C
ΔTm (Nucleic Acid [2]): 9.3 °C

COc1cc2c(cc1OCC(=O)N[C@H]1C[C@H]3C=Nc4cc(OCc5ccccc5)c(OC)cc4C(=O)N3C1)N=C[C@@H]1CCCN1C2=O
ΔTm (Nucleic Acid [3]): 4.7 °C
ΔTm (Nucleic Acid [1]): 0.9 °C

COc1cc2c(cc1O)N=C[C@@H]1CCCN1C2=O
ΔTm (Nucleic Acid [4]): 0.7 °C
ΔTm (Nucleic Acid [1]): 0.3 °C
